Results on eleven molecules are retold here after ChEMBL document CHEMBL1201862, “PubChem BioAssay data set” (2004).

Assay in all cases: DTP human tumour cell line panel, 48 h
For test [1], the system named is TK-10.
Test [2] concerns DU-145.
In test [3] the test system is OVCAR-3.
Test [4] concerns MCF7.
The subject of test [5] is SR.
In test [6] the test system is MDA-MB-231.
Test [7] has as its system BT-549.
The test system of test [8] is A498.
For test [9], the system named is SK-MEL-2.
Test [10] deals with EKVX.
In test [11] the test system is HCT-116.
The test system of test [12] is COLO 205.
In test [13] the test system is RPMI-8226.
In test [14] the test system is NCI-H460.
Test [15] deals with NCI-H226.
Test [16] relates to SNB-19.
For test [17], the system named is HCT-15.
Test [18] relates to SNB-75.
In test [19] the test system is SW-620.
For test [20], the system named is Hs-578T.

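96-well plates; 48 h exposure; 5 concentrations. Endpoints by linear interpolation between flanking doses. Not reached: highest tested concentration assigned. GI50 = concentration required for 50% inhibition of growth.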 Active and inactive are the calls of the source. Cut-off read from the data, not from the text of the source: active = GI50 up to about 1.1 µM and inactive = higher. Some results are limits rather than exact numbers.

Broadly, the GI50 is the concentration that inhibits growth by half. For `COc1c(-c2cccs2)oc2c(CC(=O)O)cccc2c1=O`, the GI50 was > 100 µM (inactive) in test [1]; > 100 µM (inactive) in [2]; > 100 µM (inactive) in test [3]; > 100 µM (inactive) in test [4]; 56 µM (inactive) in test [5]; > 100 µM (inactive) in test [6]. For the same molecule, the GI50 in test [7] is > 100 µM (inactive); in test [8] it was 86.3 µM (inactive); in test [9], > 100 µM (inactive); in test [10], > 100 µM (inactive); in [11] it was > 100 µM (inactive); in test [12], > 100 µM (inactive). In addition, the GI50 in test [13] is 0.23 µM (active).

For the molecule `COc1ccc(/C=C2/CSC/C(=C/c3ccc(OC)c(OC)c3)C2=O)cc1OC`, the GI50 was 2.23 µM (inactive) in test [14]; 3.9 µM (inactive) in test [1]; 2.88 µM (inactive) in test [2]; 2 µM (inactive) in test [3]; 1.92 µM (inactive) in test [15]; 2.22 µM (inactive) in test [4]. For the same molecule, the GI50 was 0.828 µM (active) in test [5]; 3.28 µM (inactive) in [6]; 3.5 µM (inactive) in test [16]; 1.52 µM in test [17]; 2.88 µM (inactive) in test [7]; 4.93 µM (inactive) in [8]. In addition, the GI50 is 6.4 µM (inactive) in [18]; 2.56 µM (inactive) in test [9]; 5.86 µM (inactive) in test [10]; 0.971 µM (active) in test [11]; 1.19 µM (inactive) in [19]; 2.24 µM (inactive) in [12]. Further, the GI50 in [13] is 0.472 µM (active).

With `O=C(O)c1nn[nH]c1S`, the GI50 in test [14], in test [2], in test [3], in test [15], in test [4] and in test [5] was > 100 µM (inactive) each time. Further, the GI50 in test [6] is > 100 µM (inactive); in [16], > 100 µM (inactive); in test [20], > 100 µM (inactive); in [17], > 100 µM; in test [8] it was > 100 µM (inactive); in [18] it was > 100 µM (inactive). Besides, the GI50 in test [9], in test [10], in test [11], in test [19], in [12] and in test [13] was > 100 µM (inactive) in each case.

In the case of `O=C(/C=C\c1ccc(Cl)cc1Cl)c1cccs1`, the GI50 in test [14] is 23.9 µM (inactive); in [1], 24.5 µM (inactive); in [2], 21.3 µM (inactive); in [3], 28.4 µM (inactive); in [15], 20.7 µM (inactive); in test [4], 6.89 µM (inactive). Besides, the GI50 in test [5] was 5.61 µM (inactive); in test [6], 16.7 µM (inactive); in test [16], 17 µM (inactive); in test [20] it was 24.8 µM (inactive); in test [17], 14.4 µM; in [8], 19.7 µM (inactive). For the same molecule, the GI50 in [18] was 25.2 µM (inactive); in test [9] it was 18.9 µM (inactive); in [10] it was 16.9 µM (inactive); in test [11] it was 9.57 µM (inactive); in test [19], 12.5 µM (inactive); in test [12], 16.5 µM (inactive). Moreover, in test [13], the GI50 was 3.61 µM (inactive).

As to `COc1cc(S(=O)(=O)Nc2ccc(-c3csc(/N=C\c4cccc(Oc5ccccc5)c4)n3)cc2)ccc1Cl`, the GI50 in [2] is 25.5 µM (inactive); in test [3], 31.9 µM (inactive); in test [15], 47.5 µM (inactive); in test [4], 5.2 µM (inactive); in test [5], 21.1 µM (inactive); in test [16], 8.85 µM (inactive). Moreover, the GI50 was 60.4 µM (inactive) in test [20]; 35.6 µM in test [17]; 32.7 µM (inactive) in test [7]; 30.8 µM (inactive) in test [18]; 40.5 µM (inactive) in test [9]; 8.39 µM (inactive) in test [10]. For the same molecule, the GI50 in test [11] is 14.6 µM (inactive); in test [19], 40.3 µM (inactive); in test [12], 34.7 µM (inactive); in test [13], 21.6 µM (inactive).

`O=C1OS2(OCc3cccc4cccc2c34)c2ccccc21` (stereo unspecified): the GI50 in [14], in [1], in [2], in [3], in test [15] and in test [4] was > 100 µM (inactive) in each case. Also, the GI50 in test [5] is > 100 µM (inactive); in test [6], > 100 µM (inactive); in test [16] it was > 100 µM (inactive); in [17], > 100 µM; in test [7] it was > 100 µM (inactive); in test [8], > 100 µM (inactive). Besides, the GI50 in test [18], in test [9], in test [10], in test [11], in test [19] and in test [12] was > 100 µM (inactive) throughout. Further, the GI50 in test [13] was > 100 µM (inactive).

Take `Cn1nc(C(=O)N2CC(CCl)c3c2cc([N+](=O)[O-])c2ccccc32)cc1NC(=O)Nc1cc(C(=O)N2CC(CCl)c3c2cc([N+](=O)[O-])c2ccccc32)nn1C` (stereo unspecified): the GI50 in test [14], in test [1], in [2], in test [3], in [15] and in [4] was > 100 µM (inactive) in each case. For the same molecule, the GI50 was > 100 µM (inactive) in test [6]; 77.4 µM (inactive) in test [16]; > 100 µM in test [17]; > 100 µM (inactive) in [7]; > 100 µM (inactive) in test [8]; > 100 µM (inactive) in [18]. For the same molecule, the GI50 in test [9], in test [10], in test [11], in [12] and in test [13] was > 100 µM (inactive) each time.

As for `Cc1[nH]c(=O)[nH]c(=S)c1C(=O)NC(C)(CO)CO`, the GI50 in test [14], in test [1], in [2], in test [3], in [15] and in test [4] was > 100 µM (inactive) in each case. In addition, the GI50 in test [6] is > 100 µM (inactive); in test [16] it was > 100 µM (inactive); in [20], > 100 µM (inactive); in [17], > 100 µM; in test [8] it was > 100 µM (inactive); in test [18] it was > 100 µM (inactive). Besides, the GI50 in test [9], in test [10], in test [11], in test [19] and in test [12] was > 100 µM (inactive) each time.

`C/C=C1\C(=O)O[C@H]2C/C(C)=C/CC/C(C)=C/CC[C@@]3(C)O[C@@H]3C[C@@H]12`: the GI50 was 46.1 µM (inactive) in test [14]; > 100 µM (inactive) in test [1]; > 100 µM (inactive) in test [2]; > 100 µM (inactive) in test [3]; > 100 µM (inactive) in test [4]; 37.8 µM (inactive) in test [5]. Moreover, the GI50 in test [6] is > 100 µM (inactive); in [16], 36.8 µM (inactive); in test [17], 54.3 µM; in [7] it was 69.5 µM (inactive); in test [8], > 100 µM (inactive); in test [18], > 100 µM (inactive). Besides, the GI50 in test [9] was > 100 µM (inactive); in [10], > 100 µM (inactive); in test [11] it was > 100 µM (inactive); in [19], > 100 µM (inactive); in test [12], > 100 µM (inactive); in test [13], 74.1 µM (inactive).

Regarding `CC(=O)N[C@@H](Cc1ccc(O)cn1)C(=O)NCc1cccc(Cl)c1`, the GI50 in test [14], in test [1], in test [2], in test [3], in [15] and in test [4] was > 100 µM (inactive) in each case. The GI50 is > 100 µM (inactive) in test [5]; > 100 µM (inactive) in [16]; > 100 µM (inactive) in test [20]; > 100 µM in test [17]; > 100 µM (inactive) in test [7]; > 100 µM (inactive) in [8]. Moreover, the GI50 in test [9], in test [10], in test [11], in test [19], in test [12] and in test [13] was > 100 µM (inactive) throughout.

For the molecule `COc1cc(OC)cc(-c2nc3cc(F)ccc3s2)c1`, the GI50 is 21.8 µM (inactive) in [14]; 15.8 µM (inactive) in test [1]; 26.1 µM (inactive) in [2]; 26.2 µM (inactive) in [3]; 13.7 µM (inactive) in test [15]; 1.83 µM (inactive) in test [4]. Also, the GI50 is 13.6 µM (inactive) in test [6]; 16.9 µM (inactive) in test [16]; 55.1 µM in test [17]; 11 µM (inactive) in [7]; 19.1 µM (inactive) in test [8]; 23.6 µM (inactive) in test [9]. The GI50 was 12.1 µM (inactive) in test [10]; 13.6 µM (inactive) in test [11]; > 100 µM (inactive) in test [19]; 34.1 µM (inactive) in [12]; > 100 µM (inactive) in test [13].
